Experimental data reported in ChEMBL document CHEMBL3885861, “Open TG-GATES”.

Organism: Rattus norvegicus
Test: Open TG-GATES - Regimen: Daily Repeat
Assay type: toxicity, organism-based, Sprague-Dawley
Set-up: regimen Daily Repeat, gender Male, age 6 weeks
Settings: in vivo, po, 100 mg/kg, route gavage, dose level Middle; for APTT / Bas / Eos / Fbg / Hb / Ht / Lym / MCH / MCHC / MCV / Mono / Neu / PT / Plat / RBC / Ret / WBC: tissue Blood; for KIDNEY_L / KIDNEY_R / KIDNEY_TOTAL: tissue Kidney; for LIVER: tissue Liver; for A/G / ALP / ALT / AST / BUN / CRE / Ca / Cl / DBIL / GLC / IP / K / LDH / Na / PL / RALB / TBIL / TC / TG / TP / gamma-GTP: tissue Plasma

SMILES: Cc1cccc(Nc2ccccc2C(=O)O)c1C [MEFENAMIC ACID]
- TERMINAL_BW (72 h, time 3 day): 234.2 g
- APTT (72 h, time 3 day): 18.5 s
- Bas (72 h, time 3 day): 0%
- Eos (72 h, time 3 day): 1%
- Fbg (72 h, time 3 day): 242.4 mg/dL
- Hb (72 h, time 3 day): 13.5 g/dL
- Ht (72 h, time 3 day): 38.1%
- Lym (72 h, time 3 day): 79.2%
- MCH (72 h, time 3 day): 22.1 pg
- MCHC (72 h, time 3 day): 35.4%
- MCV (72 h, time 3 day): 62.4 fL
- Mono (72 h, time 3 day): 2.6%
- Neu (72 h, time 3 day): 15.6%
- PT (72 h, time 3 day): 12.1 s
- Plat (72 h, time 3 day): 122.6 x10_4/uL
- RBC (72 h, time 3 day): 611.8 x10_4/ul
- Ret (72 h, time 3 day): 5.7%
- WBC (72 h, time 3 day): 97.2 x10_2/uL
- KIDNEY_L (72 h, time 3 day): 1 g
- KIDNEY_R (72 h, time 3 day): 1 g
- KIDNEY_TOTAL (72 h, time 3 day): 2 g
- LIVER (72 h, time 3 day): 11.2 g
- A/G (72 h, time 3 day): 1.6
- ALP (72 h, time 3 day): 1044 IU/L
- ALT (72 h, time 3 day): 38.6 IU/L
- AST (72 h, time 3 day): 65.4 IU/L
- BUN (72 h, time 3 day): 14.8 mg/dL
- CRE (72 h, time 3 day): 0.4 mg/dL
- Ca (72 h, time 3 day): 10.9 mg/dL
- Cl (72 h, time 3 day): 104 meq/L
- DBIL (72 h, time 3 day): 0.098 mg/dL
- GLC (72 h, time 3 day): 189.2 mg/dL
- IP (72 h, time 3 day): 6.9 mg/dL
- K (72 h, time 3 day): 4.2 meq/L
- LDH (72 h, time 3 day): 191.6 IU/L
- Na (72 h, time 3 day): 141.8 meq/L
- PL (72 h, time 3 day): 148 mg/dL
- RALB (72 h, time 3 day): 3.4 g/dL
- TBIL (72 h, time 3 day): 0.2 mg/dL
- TC (72 h, time 3 day): 81.6 mg/dL
- TG (72 h, time 3 day): 88.2 mg/dL
- TP (72 h, time 3 day): 5.5 g/dL
- gamma-GTP (72 h, time 3 day): 1.6 IU/L
- TERMINAL_BW ([…], time 7 day): 269.2 g
- TERMINAL_BW ([…], time 14 day): 320.1 g
- TERMINAL_BW ([…], time 28 day): 386.3 g
- APTT ([…], time 7 day): 18.5 s
- Bas ([…], time 7 day): 0%
- Eos ([…], time 7 day): 1%
- Fbg ([…], time 7 day): 230 mg/dL
- Hb ([…], time 7 day): 13.6 g/dL
- Ht ([…], time 7 day): 37.9%
- Lym ([…], time 7 day): 80.2%
- MCH ([…], time 7 day): 21.7 pg
- MCHC ([…], time 7 day): 35.9%
- MCV ([…], time 7 day): 60.6 fL
- Mono ([…], time 7 day): 2.4%
- Neu ([…], time 7 day): 14.4%
- PT ([…], time 7 day): 11.9 s
- Plat ([…], time 7 day): 121.4 x10_4/uL
- RBC ([…], time 7 day): 626.4 x10_4/ul
- Ret ([…], time 7 day): 5.4%
- WBC ([…], time 7 day): 99.8 x10_2/uL
- APTT ([…], time 14 day): 20.3 s
- Bas ([…], time 14 day): 0%
- Eos ([…], time 14 day): 0.8%
- Fbg ([…], time 14 day): 246.8 mg/dL
- Hb ([…], time 14 day): 14.4 g/dL
- Ht ([…], time 14 day): 40.6%
- Lym ([…], time 14 day): 76%
- MCH ([…], time 14 day): 21.6 pg
- MCHC ([…], time 14 day): 35.3%
- MCV ([…], time 14 day): 61.2 fL
- Mono ([…], time 14 day): 2.4%
- Neu ([…], time 14 day): 18.6%
- PT ([…], time 14 day): 12.4 s
- Plat ([…], time 14 day): 104.3 x10_4/uL
- RBC ([…], time 14 day): 664 x10_4/ul
- Ret ([…], time 14 day): 4.4%
- WBC ([…], time 14 day): 124.7 x10_2/uL
- APTT ([…], time 28 day): 19.4 s
- Bas ([…], time 28 day): 0%
- Eos ([…], time 28 day): 1.2%
- Fbg ([…], time 28 day): 261.8 mg/dL
- Hb ([…], time 28 day): 15.8 g/dL
- Ht ([…], time 28 day): 44.8%
- Lym ([…], time 28 day): 75%
- MCH ([…], time 28 day): 19.8 pg
- MCHC ([…], time 28 day): 35.3%
- MCV ([…], time 28 day): 56.3 fL
- Mono ([…], time 28 day): 2.2%
- Neu ([…], time 28 day): 20.6%
- PT ([…], time 28 day): 12.3 s
- Plat ([…], time 28 day): 98.4 x10_4/uL
- RBC ([…], time 28 day): 796.8 x10_4/ul
- Ret ([…], time 28 day): 2.3%
- WBC ([…], time 28 day): 98.3 x10_2/uL
- KIDNEY_L ([…], time 7 day): 1.1 g
- KIDNEY_R ([…], time 7 day): 1.2 g
- KIDNEY_TOTAL ([…], time 7 day): 2.2 g
- KIDNEY_L ([…], time 14 day): 1.3 g
- KIDNEY_R ([…], time 14 day): 1.4 g
- KIDNEY_TOTAL ([…], time 14 day): 2.7 g
- KIDNEY_L ([…], time 28 day): 1.4 g
- KIDNEY_R ([…], time 28 day): 1.4 g
- KIDNEY_TOTAL ([…], time 28 day): 2.8 g
- LIVER ([…], time 7 day): 12 g
- LIVER ([…], time 14 day): 14.3 g
- LIVER ([…], time 28 day): 14.9 g
- A/G ([…], time 7 day): 1.5
- ALP ([…], time 7 day): 825.2 IU/L
- ALT ([…], time 7 day): 32.8 IU/L
- AST ([…], time 7 day): 73.2 IU/L
- BUN ([…], time 7 day): 17 mg/dL
- CRE ([…], time 7 day): 0.4 mg/dL
- Ca ([…], time 7 day): 10.7 mg/dL
- Cl ([…], time 7 day): 103.2 meq/L
- DBIL ([…], time 7 day): 0.078 mg/dL
- GLC ([…], time 7 day): 219.2 mg/dL
- IP ([…], time 7 day): 6.8 mg/dL
- K ([…], time 7 day): 3.8 meq/L
- LDH ([…], time 7 day): 177.4 IU/L
- Na ([…], time 7 day): 140.2 meq/L
- PL ([…], time 7 day): 150.8 mg/dL
- RALB ([…], time 7 day): 3.4 g/dL
- TBIL ([…], time 7 day): 0.1 mg/dL
- TC ([…], time 7 day): 87.2 mg/dL
- TG ([…], time 7 day): 62.2 mg/dL
- TP ([…], time 7 day): 5.6 g/dL
- gamma-GTP ([…], time 7 day): 1.2 IU/L
- A/G ([…], time 14 day): 1.4
- ALP ([…], time 14 day): 798 IU/L
- ALT ([…], time 14 day): 39.6 IU/L
- AST ([…], time 14 day): 64.6 IU/L
- BUN ([…], time 14 day): 18.2 mg/dL
- CRE ([…], time 14 day): 0.5 mg/dL
- Ca ([…], time 14 day): 10.6 mg/dL
- Cl ([…], time 14 day): 103.4 meq/L
- DBIL ([…], time 14 day): 0.086 mg/dL
- GLC ([…], time 14 day): 208.2 mg/dL
- IP ([…], time 14 day): 7.4 mg/dL
- K ([…], time 14 day): 4 meq/L
- LDH ([…], time 14 day): 138.4 IU/L
- Na ([…], time 14 day): 140.8 meq/L
- PL ([…], time 14 day): 149 mg/dL
- RALB ([…], time 14 day): 3.3 g/dL
- TBIL ([…], time 14 day): 0.2 mg/dL
- TC ([…], time 14 day): 79 mg/dL
- TG ([…], time 14 day): 81.8 mg/dL
- TP ([…], time 14 day): 5.8 g/dL
- gamma-GTP ([…], time 14 day): 1 IU/L
- A/G ([…], time 28 day): 1.3
- ALP ([…], time 28 day): 673 IU/L
- ALT ([…], time 28 day): 35.4 IU/L
- AST ([…], time 28 day): 62.4 IU/L
- BUN ([…], time 28 day): 18 mg/dL
- CRE ([…], time 28 day): 0.5 mg/dL
- Ca ([…], time 28 day): 10.7 mg/dL
- Cl ([…], time 28 day): 104.2 meq/L
- DBIL ([…], time 28 day): 0.088 mg/dL
- GLC ([…], time 28 day): 219.4 mg/dL
- IP ([…], time 28 day): 6.7 mg/dL
- K ([…], time 28 day): 3.5 meq/L
- LDH ([…], time 28 day): 143.8 IU/L
- Na ([…], time 28 day): 141.2 meq/L
- PL ([…], time 28 day): 156.8 mg/dL
- RALB ([…], time 28 day): 3.6 g/dL
- TBIL ([…], time 28 day): 0.1 mg/dL
- TC ([…], time 28 day): 89.8 mg/dL
- TG ([…], time 28 day): 81.6 mg/dL
- TP ([…], time 28 day): 6.3 g/dL
- gamma-GTP ([…], time 28 day): 1.6 IU/L
